In patent publication US20130274233A1, “MODULATORS OF HEDGEHOG SIGNALING PATHWAY” (priority 2012, published 2013):

Columns and labels:
Assay type in all cases: cell-based
SmoM2 = experiment: Gli-luciferase reporter induced by SmoM2::GFP overexpression (SmoM2/LightII cells)
From the text: (§1) NIH/3T3 cells were maintained in DMEM containing 10% (v/v) calf serum, penicillin, streptomycin, and L-glutamine. HEK293, L, cos 7, and suFU−/− mouse embryonic fibroblast cells were maintained in DMEM containing 10% (v/v) fetal bovine serum, penicillin, streptomycin, and L-glutamine. Smo::EGFP, SmoM2::GFP, and Ivs::tagRFPT were cloned into pBabe to generate retroviral particles for infection. Smo::EGFP/Ivs::tagRFPT and SmoM2::GFP/Ivs::tagRFPT stable cell lines were generated through viral infection of NIH/3T3^12. A ShhLightII Gli reporter cell line was obtained from the American Type Culture Collection (ATCC) and used in luciferase reporter assays to measure Hh pathway activity. The cell line contains a stably integrated Gli-responsive Firefly luciferase reporter and a constitutive Renilla luciferase expression construct^33. Subclones expressing Smo or SmoM2 in ShhLightII cells were used for chemical epistasis analyses.
(§2) Hh activity assays were performed using ShhLightll cells, Smo/Lightll cells, SmoM2/Lightll cells, and suFU−/− mouse embryonic fibroblasts. In the suFU−/− cells, Hh activity was measured after co-transfection with Gli driven firefly luciferase and TK-renilla luciferase reporters^41. Wnt activity was measured in 293 cells co-transfected with Top-flash and TK-renilla luciferase reporters^42. Cells were cultured and treated in 96 well assay plates (Corning) and incubated with Duo-Glo luciferase substrates (Promega) to measure firefly and renilla luciferase activity sequentially using a Top Count NX Microplate Scintillation and Luminescence Counter (Perkin Elmer). The renilla luciferase signal was used to normalize the firefly reporter activity.
ShhLightII cells and SmoM2/LightII cells were cultured and treated in 96 well assay plates (Corning) and incubated with Duo-Glo luciferase substrates (Promega) to sequentially measure firefly and renilla luciferase activity. Smo, or GFP, expression plasmids were co-transfected into 3T3 cells together with a Gli-responsive firefly reporter and a TK-renilla luciferase reporter contruct to monitor effects of Smo overexpression. Co-transfection of the two reporter constructs was conducted in assays measuring Hh pathway activity in suFU−/− cells. Wnt activity was measured following co-transfection of a Top-flash and renilla luciferase reporter. In both Hh and Wnt activity assays, renilla luciferase reporter activity, or mass of protein, was used to normalize expression values. Luciferase signal was read by TopCount NX Microplate Scintillation and Luminescence Counter (Perkin Elmer). Quantitative PCR probes for Ptch1, Gli1, and β-actin were purchased from Applied Biosystems. Reactions and measurements were performed using on an Applied Biosystems 7900HT at Harvard FAS Center of System Biology. β-actin was used to normalize Ptch1 and Gil1 values.

Smo = experiment: Gli-luciferase reporter induced by Smo::GFP overexpression (Smo/LightII cells); details: Mus musculus, Shh Light II; 3T3/Smo::GFP Overexpression/Shh-LightII; stimulus none; read-out: IC50, inhibition of expression of Gli-luciferase reporter induced by Smo::GFP overexpression
From the text: as §1, with “The cell line contains a stably integrated Gli-responsive Firefly luciferase reporter and a constitutive Renilla luciferase expression construct^33. Subclones expressing Smo or SmoM2 in ShhLightII cells were used for chemical epistasis analyses.” left out
as §2, with “The renilla luciferase signal was used to normalize the firefly reporter activity.” left out

primary cilium (PC) = experiment: Primary cilium markers in the high content assay (Ivs::tagRFPT, Arl13b, acetylated tubulin); details: Ivs::tagRFPT and other PC markers
From the text: Acapella 2.0 software (Evotec Technologies/PerkinElmer) was used to perform multi-parametric high content image quantification. Our image analysis script used Ivs::tagREPT to first determine the location of the PC and then Smo::EGFP to quantify the level of Smo present in the cilium.
The inventors used the spot-finding algorithm in the RFP channel to find Ivs-rich spots. Each non-overlapping spot was based on a maximum 8 pixel-radius (when using a 40× objective) around a central intensity peak of 5 pixels. A distance of at least 10 pixels was required between adjacent spot centers. Spot peaks had to exceed thresholds of relative intensity compared to the remaining body of the spot as well as to the entire image. The average, maximum and total RFP intensity of each spot were measured. The spots with sufficiently high absolute maxima to pass the selected threshold were classified as positive spots. To form candidate cilia, the inventors selected the brightest 15% of the pixels in each positive spot and merged those pixels into objects so that the brightest parts of adjacent spots could form single, larger cilia-shaped objects. To qualify the candidate cilia as true Ivs-positive cilia, the width of the objects created from merging the brightest pixels in each spot had to be at least 2 pixels and the length to half-width ratio had to exceed 3. (i.e. a 3-pixel long by 2-pixel wide cilium was the minimum accepted cilium size and the length had to be at least 1.5 fold of the width). The mean GFP intensity within these Ivs-positive cilia was used to estimate the ciliary level of Smo protein. The inventors subtracted the background of the mean GFP intensity in the 3-pixel wide area around each candidate cilium to avoid some false positives. Those Ivs-positive cilia that exceed the final mean GFP intensity threshold set for each experiment were deemed Smo-positive cilia. […]
Cells were cultured and treated in 384-well imaging plate precoated with poly-D-Lysine (Greiner Bio-one), fixed with 4% paraformaldehyde (Electron Microscopy Sciences), and stained with Hoechst (Invitrogen). […] Acapella 2.0 software (Evotec Technologies/PerkinElmer) was used to perform multi-parametric image quantification. All the comparative images were scanned with identical microscopic setting and analyzed with the same input parameters.

Structure (SMILES): CCN(CC)c1ccc(/C=N/NC(=O)c2ccc(O)cc2)cc1 [DY131]
- IC50 (SmoM2; Mus musculus, Shh Light II, 3T3/SmoM2::GFP Overexpression/Shh-LightII, stimulus none, read-out: IC50, inhibition of expression of Gli-luciferase reporter induced by SmoM2::GFP overexpression): > 30 µM
- effect on SmoM2 driven Hh pathway activity, transcriptional reporter (SmoM2; SmoM2 overexpression): failed to inhibit
- IC50 (Smo): > 30 µM

Structure (SMILES): CC1(C)O[C@@H]2C[C@H]3[C@@H]4C[C@H](F)C5=CC(=O)C=C[C@]5(C)[C@@]4(F)[C@@H](O)C[C@]3(C)[C@]2(C(=O)CO)O1 [FA, fluocinolone acetonide]
- effect on primary cilium markers / ciliary structure (primary cilium (PC)): unaltered
